# Test results reported in article PMC5591577, “Computationally-guided optimization of small-molecule inhibitors of the Aurora A kinase–TPX2 protein–protein interaction” (Chemical Communications (Cambridge, England), 2017).
# Experiments:
# Aurora A kinase [1] = molecular target: T1, Aurora A kinase (Homo sapiens, UniProt O14965); experiment: fluorescence anisotropy competition assay (TPX2 displacement); format: binding; set-up: gene AURKA; with TPX2; details: read-out: K i ^b
# T1 sequence (O14965 1-403): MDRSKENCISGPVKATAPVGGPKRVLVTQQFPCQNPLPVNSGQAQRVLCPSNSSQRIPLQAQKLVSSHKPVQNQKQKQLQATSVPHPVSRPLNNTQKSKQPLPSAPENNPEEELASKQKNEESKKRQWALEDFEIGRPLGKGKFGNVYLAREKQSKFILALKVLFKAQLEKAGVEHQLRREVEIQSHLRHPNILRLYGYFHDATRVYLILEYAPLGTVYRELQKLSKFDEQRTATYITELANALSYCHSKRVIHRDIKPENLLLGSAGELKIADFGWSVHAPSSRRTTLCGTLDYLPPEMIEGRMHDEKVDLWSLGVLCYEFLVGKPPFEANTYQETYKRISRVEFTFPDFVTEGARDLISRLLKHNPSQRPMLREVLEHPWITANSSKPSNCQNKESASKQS
# Aurora A kinase [2] = molecular target: T1, Aurora A kinase; experiment: X-ray crystal structure (Ki by fluorescence anisotropy, from ref […]); format: binding; set-up: gene AURKA; details: cited from earlier work
Structure (SMILES),Ki (Aurora A kinase [1]),Ki (Aurora A kinase [2])
Cc1ccc(-c2cc(C(=O)O)c3ccccc3n2)cc1Br [compound 10],2.3 µM,–
O=C(O)c1cc(-c2cccc(F)c2)nc2ccccc12 [compound 2],–,16.5 µM
Cc1ccc(-c2cc(C(=O)O)c3ccccc3n2)cc1F [compound 9],8.7 µM,–
